We go through 23 compounds from patent US12479825B2, “Melanocortin subtype-2 receptor (MC2R) antagonists and uses thereof” (Crinetics Pharmaceuticals, Inc., priority 2019, dated 2025).

The target in this experiment is T1, hMC2 receptor (Homo sapiens, UniProt Q01718).
T1 construct: host or cells: CRE-bla-CHO-K1 cells, crude membrane fraction
Put plainly: hMC2 membrane binding assay ([125I]ACTH (1-39) Tyr23, SPA). To be noted: crude hMC2R membranes from CRE-bla-CHO-K1 cells expressing hMC2 receptor and hMRAP; 0.2 nM [125I]ACTH (1-39) Tyr23; 1.5 hours at room temperature; read-out: MC2R binding potency. How it is done:
Crude membrane fractions are prepared from CRE-bla-CHO-K1 cells stably expressing hMC2 receptor and hMRAP accessory protein (Thermo Fisher). The cells are grown to 85-100% confluence on standard tissue culture dishes in GlutaMax DMEM growth media (Gibco) with following additives: 10% dialyzed FBS (Gemini), 0.1 mM NEAA (Gibco), 25 mM HEPES (Gibco), 5 μg/mL blasticidin (Goldbio), 100 μg/mL zeocin (Invitrogen), 600 μg/mL hygromycin (Goldbio). To prepare membranes, cells are scraped and collected in 1× Dulbecco's phosphate buffered saline (Corning) and then pelleted at 1000 RPM's. The cell pellet is reconstituted in membrane preparation buffer (20 mM HEPES, 6 mM MgCl2 and 1 mM EGTA, protease inhibitor tablets (Pierce) adjusted to pH 7.4), homogenized using a dounce homogenizer, and the resulting membrane fraction is pelleted by centrifugation at 12,000 RPM's. The membrane pellet is resuspended in membrane preparation buffer, snap freezed and stored at −80° C. for later use.
The hMC2 membrane binding assay utilizes the following components: radiolabel [^125I]ACTH (1-39) Tyr23 (PerkinElmer), wheat germ agglutinin coated PVT SPA beads (PerkinElmer), crude hMC2R membranes, and compounds. Briefly hMC2R membranes are incubated with SPA beads in binding assay buffer (50 mM HEPES, 5 mM MgCl2, 1 mM CaCl2, 0.2% BSA, protease inhibitor tablets (Pierce) adjusted to pH7.4) prior to assay initiation. A dose response of compound (the final concentration of compound is typically 0-10,000 nM), SPA membranes, and [^125I]ACTH (1-39) Tyr23 at a final concentration of 0.2 nM is plated in a 96-well assay plate and allowed to incubate 1.5 hours at room temperature. Assay plates are read using a Top Count NXT and Ki values for compounds are determined using a GraphPad Prism 6 non-linear regression analysis.

A value given as a limit tells only on which side of the number the result lay.

T1 sequence (Q01718 whole entry): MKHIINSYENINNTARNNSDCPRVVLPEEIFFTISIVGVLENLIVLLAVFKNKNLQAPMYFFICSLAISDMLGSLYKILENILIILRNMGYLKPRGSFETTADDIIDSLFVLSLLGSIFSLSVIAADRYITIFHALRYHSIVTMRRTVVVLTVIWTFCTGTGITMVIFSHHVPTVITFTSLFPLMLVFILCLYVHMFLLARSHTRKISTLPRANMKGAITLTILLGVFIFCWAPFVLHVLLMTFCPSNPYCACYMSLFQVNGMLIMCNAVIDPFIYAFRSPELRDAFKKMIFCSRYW
T1 sequence (Q8TCY5 whole entry partner): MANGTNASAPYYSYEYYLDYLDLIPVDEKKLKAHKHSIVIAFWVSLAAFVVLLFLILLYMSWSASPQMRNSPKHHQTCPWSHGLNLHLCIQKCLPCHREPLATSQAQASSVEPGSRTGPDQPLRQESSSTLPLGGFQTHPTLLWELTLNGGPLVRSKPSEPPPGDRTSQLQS

Take `CCOc1ncccc1-c1ccc(N2CC[C@H](Oc3ccc(C(F)(F)F)nc3C#N)C[C@@H]2C2CC2)c(C(=O)N[C@@H]2CCN(C)C2)n1` (mixture of isomers) [2-14, 5-(cis-4-{[2-cyano-6-(trifluoromethyl)pyridin-3-yl]oxy}-2-cyclopropylpiperidin-1-yl)-2′-ethoxy-N-[(3R)-1-methylpyrrolidin-3-yl]-[2,3′-bipyridine]-6-carboxamide]: the Ki is less than 0.01 µM.

For the compound `CCOc1ncccc1-c1ccc(N2CCN(C(=O)c3ccc(F)cc3C(F)F)C[C@H]2CC)c(OCCN)n1` [1-13, 2-({5-[(2R)-4-[2-(difluoromethyl)-4-fluorobenzoyl]-2-ethylpiperazin-1-yl]-2′-ethoxy-[2,3′-bipyridin]-6-yl}oxy)ethan-1-amine], the Ki is less than 0.01 µM.

Turning to `CCOc1ncccc1-c1ccc(N2CCN(C(=O)N3CCC[C@H]3C(F)(F)F)C[C@H]2CC)c(O[C@@H]2CCN(C)C2)n1` [1-4, 2′-ethoxy-5-[(2R)-2-ethyl-4-[(2S)-2-(trifluoromethyl)pyrrolidine-1-carbonyl]piperazin-1-yl]-6-{[(3R)-1-methylpyrrolidin-3-yl]oxy}-2,3′-bipyridine], the Ki lay in the range of 0.01 to 0.1 µM.

For `CCOc1ncccc1-c1ccc(N2CCN(C(=O)c3ccc(F)cc3Cl)C[C@H]2CC)c(OCCNC)n1` [1-29, [2-({5-[(2R)-4-(2-chloro-4-fluorobenzoyl)-2-ethylpiperazin-1-yl]-2′-ethoxy-[2,3′-bipyridin]-6-yl}oxy)ethyl](methyl)amine], the Ki was less than 0.01 µM.

Take `CCOc1ccc(C(=O)N2CCN(c3ccc(-c4cccnc4OCC)nc3O[C@@H]3CCNC3)[C@H](CC)C2)c(C(F)(F)F)n1` [1-5, 2′-ethoxy-5-[(2R)-4-[6-ethoxy-2-(trifluoromethyl)pyridine-3-carbonyl]-2-ethylpiperazin-1-yl]-6-[(3R)-pyrrolidin-3-yloxy]-2,3′-bipyridine]: the Ki was less than 0.01 µM.

Take `CCOc1ncccc1-c1ccc(N2CC[C@@H](Oc3ccc(C(F)(F)F)nc3C#N)C[C@H]2CC)c(C(=O)N[C@H]2CCN(C)C2)n1` (single isomer, unassigned) [2-22]: the Ki is less than 0.01 µM.

As for `CCOc1ncccc1-c1ccc(N2CCN(C(=O)c3ccc(OC)nc3C(F)(F)F)C[C@H]2CC)c(OCCNC)n1` [1-30, [2-({2′-ethoxy-5-[(2R)-2-ethyl-4-[6-methoxy-2-(trifluoromethyl)pyridine-3-carbonyl]piperazin-1-yl]-[2,3′-bipyridin]-6-yl}oxy)ethyl](methyl)amine], the Ki was less than 0.01 µM.

`CCOc1ncccc1-c1ccc(N2CCN(C(=O)c3ccc(Cl)cc3Cl)C[C@H]2CC)c(OCCNC)n1` [1-28, [2-({5-[(2R)-4-(2,4-dichlorobenzoyl)-2-ethylpiperazin-1-yl]-2′-ethoxy-[2,3′-bipyridin]-6-yl}oxy)ethyl](methyl)amine]: the Ki was less than 0.01 µM.

`CCOc1ccc(C(=O)N2CCN(c3ccc(-c4cccnc4OCC)nc3OCCN)[C@H](CC)C2)c(C(F)(F)F)n1` [1-12, 2-({2′-ethoxy-5-[(2R)-4-[6-ethoxy-2-(trifluoromethyl)pyridine-3-carbonyl]-2-ethylpiperazin-1-yl]-[2,3′-bipyridin]-6-yl}oxy)ethan-1-amine]: the Ki is less than 0.01 µM.

Consider `CCOc1ccc(C(=O)N2CCN(c3ccc(-c4cccnc4OCC)nc3O[C@H]3CCNC3)[C@H](CC)C2)c(C(F)(F)F)n1` [1-18, 2′-ethoxy-5-[(2R)-4-[6-ethoxy-2-(trifluoromethyl)pyridine-3-carbonyl]-2-ethylpiperazin-1-yl]-6-[(3S)-pyrrolidin-3-yloxy]-2,3′-bipyridine], for which the Ki is less than 0.01 µM.

Take `CCOc1ncccc1-c1ccc(N2CCN(C(=O)c3ccc(Cl)cc3C(F)(F)F)C[C@H]2CC)c(O[C@@H]2CCNC2)n1` [1-7, 5-[(2R)-4-[4-chloro-2-(trifluoromethyl)benzoyl]-2-ethylpiperazin-1-yl]-2′-ethoxy-6-[(3R)-pyrrolidin-3-yloxy]-2,3′-bipyridine]: the Ki is less than 0.01 µM.

In the case of `CCOc1ccc(C(=O)N2CCN(c3ccc(-c4cccnc4OCC)nc3OC[C@H](C)N)[C@H](CC)C2)c(C(F)(F)F)n1` [1-20, (2S)-1-({2′-ethoxy-5-[(2R)-4-[6-ethoxy-2-(trifluoromethyl)pyridine-3-carbonyl]-2-ethylpiperazin-1-yl]-[2,3′-bipyridin]-6-yl}oxy)propan-2-amine], the Ki is less than 0.01 µM.

Regarding `CCOc1ncccc1-c1ccc(N2CC[C@H](Oc3ccc(C(F)(F)F)nc3C#N)C[C@@H]2CC)c(C(=O)N[C@@H]2CCN(C)C2)n1` (mixture of isomers) [2-15, 5-(cis-4-{[2-cyano-6-(trifluoromethyl)pyridin-3-yl]oxy}-2-ethylpiperidin-1-yl)-2′-ethoxy-N-[(3R)-1-methylpyrrolidin-3-yl]-[2,3′-bipyridine]-6-carboxamide], the Ki was less than 0.01 µM.

Regarding `CCOc1ncccc1-c1ccc(N2CCN(C(=O)N3CCc4cc(Cl)cc(C#N)c43)C[C@H]2CC)c(OCCN)n1` [1-25, 1-[(3R)-4-[6-(2-aminoethoxy)-2′-ethoxy-[2,3′-bipyridin]-5-yl]-3-ethylpiperazine-1-carbonyl]-5-chloro-2,3-dihydro-1H-indole-7-carbonitrile], the Ki is less than 0.01 µM.

For `CCOc1ncccc1-c1ccc(N2CCN(C(=O)c3ccc(F)cc3Cl)C[C@H]2CC)c(-c2nnc(N)[nH]2)n1` [4-3, (R)-(4-(6-(5-amino-4H-1,2,4-triazol-3-yl)-2′-ethoxy-[2,3′-bipyridin]-5-yl)-3-ethylpiperazin-1-yl)(2-chloro-4-fluorophenyl)methanone], the Ki fell in the range of 0.1 to 1 µM.

On to `CCOc1ccc(C(=O)N2CCN(c3ccc(-c4cccnc4OCC)nc3OCCN(C)C)[C@H](CC)C2)c(C(F)(F)F)n1` [1-17, [2-({2′-ethoxy-5-[(2R)-4-[6-ethoxy-2-(trifluoromethyl)pyridine-3-carbonyl]-2-ethylpiperazin-1-yl]-[2,3′-bipyridin]-6-yl}oxy)ethyl]dimethylamine], for which the Ki was less than 0.01 µM.

Regarding `CCOc1ncccc1-c1ccc(N2CC[C@H](S(=O)(=O)c3ccccc3C(F)(F)F)C[C@H]2CC)c(C(=O)N[C@@H]2CCN(C)C2)n1` (racemic) [5-2, rac-2′-ethoxy-5-[(2R,4S)-2-ethyl-4-[2-(trifluoromethyl)benzenesulfonyl]piperidin-1-yl]-N-[(3R)-1-methylpyrrolidin-3-yl]-[2,3′-bipyridine]-6-carboxamide], the Ki was 0.1 to 1 µM.

With `CCOc1ncccc1-c1ccc(C2CCN(c3ccc(C(F)(F)F)cc3C#N)CC2)c(OCCNC)n1` [3-1, 2-(4-(2′-ethoxy-6-(2-(methylamino)ethoxy)-[2,3′-bipyridin]-5-yl)piperidin-1-yl)-5-(trifluoromethyl)benzonitrile], the Ki is less than 0.01 µM.

With `CCOc1ccc(C(=O)N2CCN(c3ccc(-c4cccnc4OCC)nc3OC[C@@H](C)N)[C@H](CC)C2)c(C(F)(F)F)n1` [1-19, (2R)-1-({2′-ethoxy-5-[(2R)-4-[6-ethoxy-2-(trifluoromethyl)pyridine-3-carbonyl]-2-ethylpiperazin-1-yl]-[2,3′-bipyridin]-6-yl}oxy)propan-2-amine], the Ki was less than 0.01 µM.

`CCOc1ncccc1-c1ccc(N2CC[C@H](Oc3ccc(C)cc3C#N)C[C@@H]2C2CC2)c(C(=O)N[C@@H]2CCN(C)C2)n1` (mixture of isomers) [2-16, 5-[cis-4-(2-cyano-4-methylphenoxy)-2-cyclopropylpiperidin-1-yl]-2′-ethoxy-N-[(3R)-1-methylpyrrolidin-3-yl]-[2,3′-bipyridine]-6-carboxamide]: the Ki was less than 0.01 µM.

Turning to `CCOc1ncccc1-c1ccc(N2CCN(C(=O)N3CCc4cccc(C#N)c43)C[C@H]2CC)c(OCCNC)n1` [1-23, 1-[(3R)-4-{2′-ethoxy-6-[2-(methylamino)ethoxy]-[2,3′-bipyridin]-5-yl}-3-ethylpiperazine-1-carbonyl]-2,3-dihydro-1H-indole-7-carbonitrile], the Ki was less than 0.01 µM.

As to `CCOc1ncccc1-c1ccc(N2CC[C@H](Sc3ccccc3C(F)(F)F)C[C@H]2CC)c(C(=O)N[C@@H]2CCN(C)C2)n1` (racemic) [5-1, rac-2′-ethoxy-5-[(2R,4S)-2-ethyl-4-{[2-(trifluoromethyl)phenyl]sulfanyl}piperidin-1-yl]-N-[(3R)-1-methylpyrrolidin-3-yl]-[2,3′-bipyridine]-6-carboxamide], the Ki was less than 0.01 µM.

For `CCOc1ncccc1-c1ccc(N2CCN(C(=O)N3CCc4cc(Cl)cc(C#N)c43)C[C@H]2CC)c(OCCNC)n1` [1-26, 5-chloro-1-[(3R)-4-{2′-ethoxy-6-[2-(methylamino)ethoxy]-[2,3′-bipyridin]-5-yl}-3-ethylpiperazine-1-carbonyl]-2,3-dihydro-1H-indole-7-carbonitrile], the Ki was less than 0.01 µM.
